# Measured values as given in patent US10501518B2 (priority 2013, dated 2019).
# Read-outs that look alike come from different tables or passages of the source. Starred links: 1 amine or outer side, 2 acyl side, 3 side chain; linkers in the order of their positions; H or OH if unused. Non-standard residues stand in square brackets, D forms with d. Residues, ends and D or L forms follow the SMILES beside them. *: point of attachment. NH(1S,2S-2-CONH2-cPent) = NC(=O)[C@H]1CCC[C@@H]1N*; β3hW = N[C@H](CC(=O)O)Cc1c[nH]c2ccccc12; X12 = O=C([C@H]1CCC[C@@H]1N[*:1])[*:2]; X13 = O=C([C@H]1CNC[C@@H]1N[*:1])[*:2]; ACPC(1S,2S) = N[C@H]1CCC[C@@H]1C(=O)*; hArg = N=C(N)NCCCC[C@H](N)C(=O)O; β3hE = N[C@@H](CCC(=O)O)CC(=O)O; β3hF = N[C@H](CC(=O)O)Cc1ccccc1; X14 = O=C(C1CCCC1N[*:1])[*:2]; β3hK = NCCCC[C@H](N)CC(=O)O; β3hM = CSCC[C@H](N)CC(=O)O; β3hD = NC(CC(=O)O)CC(=O)O; β3hS = N[C@@H](CO)CC(=O)O; Aib = CC(C)(N)C(=O)O
# Target: T1, PTHR (Homo sapiens, UniProt Q03431)
# T1 construct: expressed in transfected cells
# T1 sequence (Q03431 27-593): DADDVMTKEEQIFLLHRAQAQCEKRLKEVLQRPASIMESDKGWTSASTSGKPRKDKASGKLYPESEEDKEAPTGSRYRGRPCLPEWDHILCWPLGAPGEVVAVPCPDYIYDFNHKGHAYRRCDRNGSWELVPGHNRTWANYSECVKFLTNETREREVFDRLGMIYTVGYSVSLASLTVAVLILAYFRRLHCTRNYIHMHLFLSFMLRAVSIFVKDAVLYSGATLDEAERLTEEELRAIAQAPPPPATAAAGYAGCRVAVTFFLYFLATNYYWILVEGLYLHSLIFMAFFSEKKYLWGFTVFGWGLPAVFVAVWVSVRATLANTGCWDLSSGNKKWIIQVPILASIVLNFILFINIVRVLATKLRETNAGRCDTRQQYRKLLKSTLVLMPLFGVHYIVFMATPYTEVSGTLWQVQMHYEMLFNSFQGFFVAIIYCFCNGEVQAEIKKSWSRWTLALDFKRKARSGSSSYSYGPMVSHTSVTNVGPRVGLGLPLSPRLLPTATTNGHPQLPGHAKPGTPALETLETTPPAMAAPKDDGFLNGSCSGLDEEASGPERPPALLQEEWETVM
# Assay: cAMP induction potency, N-terminal modifications and cyclic constraints (Tables 9, 10, 13)
# Type: cell-based
# Description: For cAMP dose-response assays, monolayers of confluent HEK 293 cells were pre-incubated with buffer containing d-luciferin (0.5 mM) in 96 well plates at room temperature until a stable baseline level of luminescence was established (30 min). Varying concentrations of agonist were then added, and the time course of luminescence response was recorded using a Perkin Elmer plate reader following α/β-peptide addition.
Compound,Fold PTH (Table 10),Fold PTH (Table 9),other results
CC[C@H](C)[C@H](NC(=O)[C@H](CCC(=O)O)NC(=O)[C@H](C)NC(=O)[C@@H](NC(=O)[C@H](C)N)C(C)C)C(=O)N[C@@H](CCC(N)=O)C(=O)NC1CCCC1C(=O)N[C@@H](CCSC)C(=O)N[C@@H](Cc1c[nH]cn1)C(=O)N[C@@H](CCC(N)=O)C(=O)N[C@@H](CCCCNC(=N)N)C(=O)N[C@@H](C)C(=O)N[C@@H](CCCCN)C(=O)N[C@H](CC(=O)N[C@@H](CC(C)C)C(=O)N[C@@H](CC(N)=O)C(=O)N[C@@H](CO)C(=O)N[C@@H](CCSC)CC(=O)N[C@@H](CCCNC(=N)N)C(=O)N[C@@H](CCCNC(=N)N)C(=O)N[C@H](C(=O)N[C@@H](CCC(=O)O)CC(=O)N[C@@H](Cc1c[nH]c2ccccc12)C(=O)N[C@@H](CC(C)C)C(=O)N[C@@H](CCCNC(=N)N)C(=O)N[C@@H](CCCCN)CC(=O)N[C@@H](CCCCN)C(=O)N[C@@H](CC(C)C)C(=O)N[C@@H](CCC(N)=O)C(=O)N[C@@H](CC(=O)O)CC(=O)N[C@H](C(=O)N[C@@H](Cc1c[nH]cn1)C(=O)N[C@@H](CC(N)=O)C(=O)N[C@H](CC(N)=O)Cc1ccccc1)C(C)C)C(C)C)Cc1c[nH]c2ccccc12 (stereo partly drawn) [M-D6] (H-AVAEIQ[X14]MHQ[hArg]AK[β3hW]LNS[β3hM]RRV[β3hE]WLR[β3hK]KLQ[β3hD]VHN[β3hF]-NH2; N-terminus assumed),5.4,,
"CSCC[C@H](NC(=O)[C@H]1CCC[C@@H]1NC(=O)[C@H](CCC(N)=O)NC(=O)[C@H]1CCC[C@@H]1NC(=O)[C@H](CCC(=O)O)NC(=O)[C@H](CO)NC(=O)[C@@H](NC(=O)[C@H]1CCC[C@@H]1N)C(C)C)C(=O)N[C@@H](Cc1c[nH]cn1)C(=O)N[C@@H](CC(N)=O)C(=O)N[C@@H](CC(C)C)C(=O)NCC(=O)N[C@@H](CCCCN)C(=O)N[C@H]1CCC[C@@H]1C(=O)N[C@@H](CC(C)C)C(=O)N[C@@H](CC(N)=O)C(=O)N[C@@H](CO)C(=O)N[C@H]1CCC[C@@H]1C(=O)N[C@@H](CCC(=O)O)C(=O)N[C@@H](CCCNC(=N)N)C(=O)N[C@H](C(=O)N[C@@H](CCC(=O)O)CC(=O)N[C@@H](Cc1c[nH]c2ccccc12)C(=O)N[C@@H](CC(C)C)C(=O)N[C@@H](CCCNC(=N)N)C(=O)N[C@H]1CNC[C@@H]1C(=O)N[C@@H](CCCCN)C(=O)N[C@@H](CC(C)C)C(=O)N[C@@H](CCC(N)=O)C(=O)N[C@@H](CC(=O)O)CC(=O)N[C@H](C(=O)N[C@@H](Cc1c[nH]cn1)C(=O)N[C@@H](CC(N)=O)C(=O)N[C@H]1CCC[C@@H]1C(N)=O)C(C)C)C(C)C [CycD6_ACPC(1,5,7), XVSEXQXMHNLGKXLNSXERVEWLRZKLQDVHNX-NH2] ({ACPC(1S,2S)}-VSE[X12]Q[X12]MHNLGK[X12]LNS[X12]ERV[β3hE]WLR[X13]KLQ[β3hD]VHN-{NH(1S,2S-2-CONH2-cPent)}; N-terminus assumed)",,266,
"XVSEIQXMHNLGKWLNSMERVEWLRKKLQDVHNF-NH2 [D6_ACPC(1,7)]",,22.6,
"CSCC[C@H](NC(=O)[C@H]1CCC[C@@H]1NC(=O)[C@H](CCC(N)=O)NC(=O)[C@H]1CCC[C@@H]1NC(=O)[C@H](CCC(=O)O)NC(=O)[C@H](CO)NC(=O)[C@@H](NC(=O)C[C@@H](N)CO)C(C)C)C(=O)N[C@@H](Cc1c[nH]cn1)C(=O)N[C@@H](CC(N)=O)C(=O)N[C@@H](CC(C)C)C(=O)NCC(=O)N[C@@H](CCCCN)C(=O)N[C@H]1CCC[C@@H]1C(=O)N[C@@H](CC(C)C)C(=O)N[C@@H](CC(N)=O)C(=O)N[C@@H](CO)C(=O)N[C@H]1CCC[C@@H]1C(=O)N[C@@H](CCC(=O)O)C(=O)N[C@@H](CCCNC(=N)N)C(=O)N[C@H](C(=O)N[C@H]1CNC[C@@H]1C(=O)N[C@@H](Cc1c[nH]c2ccccc12)C(=O)N[C@@H](CC(C)C)C(=O)N[C@@H](CCCNC(=N)N)C(=O)N[C@H]1CNC[C@@H]1C(=O)N[C@@H](CCCCN)C(=O)N[C@@H](CC(C)C)C(=O)N[C@@H](CCC(N)=O)C(=O)N[C@H]1CCC[C@@H]1C(=O)N[C@H](C(=O)N[C@@H](Cc1c[nH]cn1)C(=O)N[C@@H](CC(N)=O)C(=O)N[C@H]1CCC[C@@H]1C(N)=O)C(C)C)C(C)C [FcycD6_β^3Ser1, ACPC(5, 7, SVSEXQXMHNLGKXLNSXERVZWLRZKLQXVHNX-NH2] (H-[β3hS]VSE[X12]Q[X12]MHNLGK[X12]LNS[X12]ERV[X13]WLR[X13]KLQ[X12]VHN-{NH(1S,2S-2-CONH2-cPent)}; N-terminus assumed)",,,"EC50 (Table 13, non M-PTH analogs, read-out: cAMP, EC50 nM ± SEM): 0.79 nM"

# The next lines start with results.
Fold PTH (Table 10),Fold PTH (Table 9),Compound,other results
4.0,,AVAEIQXMHQ^hRAKXLNSXRRVEWLRZKLQDVHNX-NH2 [M-cycD6],
3.8,,"CSCC[C@H](NC(=O)[C@H]1CCC[C@@H]1NC(=O)[C@H](CCC(N)=O)NC(=O)[C@H]1CCC[C@@H]1NC(=O)[C@H](CCC(=O)O)NC(=O)C(C)(C)NC(=O)[C@@H](NC(=O)[C@H]1CCC[C@@H]1N)C(C)C)C(=O)N[C@@H](Cc1c[nH]cn1)C(=O)N[C@@H](CCC(N)=O)C(=O)N[C@@H](CCCCNC(=N)N)C(=O)N[C@@H](C)C(=O)N[C@@H](CCCCN)C(=O)N[C@H]1CCC[C@@H]1C(=O)N[C@@H](CC(C)C)C(=O)N[C@@H](CC(N)=O)C(=O)N[C@@H](CO)C(=O)N[C@H]1CCC[C@@H]1C(=O)N[C@@H](CCCNC(=N)N)C(=O)N[C@@H](CCCNC(=N)N)C(=O)N[C@H](C(=O)N[C@@H](CCC(=O)O)CC(=O)N[C@@H](Cc1c[nH]c2ccccc12)C(=O)N[C@@H](CC(C)C)C(=O)N[C@@H](CCCNC(=N)N)C(=O)N[C@H]1CNC[C@@H]1C(=O)N[C@@H](CCCCN)C(=O)N[C@@H](CC(C)C)C(=O)N[C@@H](CCC(N)=O)C(=O)N[C@@H](CC(=O)O)CC(=O)N[C@H](C(=O)N[C@@H](Cc1c[nH]cn1)C(=O)N[C@@H](CC(N)=O)C(=O)N[C@H]1CCC[C@@H]1C(N)=O)C(C)C)C(C)C [M-X1,5,7-CycD6, HXVUEXQXMHQ^hRAKXLNSXRRVEWLRZKLQDVHNX-NH2] ({ACPC(1S,2S)}-V[Aib]E[X12]Q[X12]MHQ[hArg]AK[X12]LNS[X12]RRV[β3hE]WLR[X13]KLQ[β3hD]VHN-{NH(1S,2S-2-CONH2-cPent)}; N-terminus assumed)",
6.3,,AVAEIQXMHQ^hRAKXLNSXRRVZWLRZKLQXVHNX-NH2 [M-FcycD6],
,1.3,"CC[C@H](C)[C@H](NC(=O)[C@H](CCC(=O)O)NC(=O)[C@H](CO)NC(=O)[C@@H](NC(=O)[C@@H](N)CO)C(C)C)C(=O)N[C@@H](CCC(N)=O)C(=O)N[C@@H](CC(C)C)C(=O)N[C@@H](CCSC)C(=O)N[C@@H](Cc1c[nH]cn1)C(=O)N[C@@H](CC(N)=O)C(=O)N[C@@H](CC(C)C)C(=O)NCC(=O)N[C@@H](CCCCN)C(=O)N[C@H]1CCC[C@@H]1C(=O)N[C@@H](CC(C)C)C(=O)N[C@@H](CC(N)=O)C(=O)N[C@@H](CO)C(=O)N[C@H]1CCC[C@@H]1C(=O)N[C@@H](CCC(=O)O)C(=O)N[C@@H](CCCNC(=N)N)C(=O)N[C@H](C(=O)N[C@@H](CCC(=O)O)CC(=O)N[C@@H](Cc1c[nH]c2ccccc12)C(=O)N[C@@H](CC(C)C)C(=O)N[C@@H](CCCNC(=N)N)C(=O)N[C@H]1CNC[C@@H]1C(=O)N[C@@H](CCCCN)C(=O)N[C@@H](CC(C)C)C(=O)N[C@@H](CCC(N)=O)C(=O)N[C@@H](CC(=O)O)CC(=O)N[C@H](C(=O)N[C@@H](Cc1c[nH]cn1)C(=O)N[C@@H](CC(N)=O)C(=O)N[C@H]1CCC[C@@H]1C(N)=O)C(C)C)C(C)C [cycD6, SVSEIQLMHNLGKXLNSXERVEWLRZKLQDVHNX-NH2] (H-SVSEIQLMHNLGK[X12]LNS[X12]ERV[β3hE]WLR[X13]KLQ[β3hD]VHN-{NH(1S,2S-2-CONH2-cPent)}; N-terminus assumed)","EC50 (Table 9, read-out: EC50, nM (cAMP induction potency)): 0.1 ± 0.01 nM"
21.8,,"CC[C@H](C)[C@H](NC(=O)[C@H](CCC(=O)O)NC(=O)C(C)(C)NC(=O)[C@@H](NC(=O)[C@H]1CCC[C@@H]1N)C(C)C)C(=O)N[C@@H](CCC(N)=O)C(=O)N[C@H]1CCC[C@@H]1C(=O)N[C@@H](CCSC)C(=O)N[C@@H](Cc1c[nH]cn1)C(=O)N[C@@H](CCC(N)=O)C(=O)N[C@@H](CCCCNC(=N)N)C(=O)N[C@@H](C)C(=O)N[C@@H](CCCCN)C(=O)N[C@H]1CCC[C@@H]1C(=O)N[C@@H](CC(C)C)C(=O)N[C@@H](CC(N)=O)C(=O)N[C@@H](CO)C(=O)N[C@H]1CCC[C@@H]1C(=O)N[C@@H](CCCNC(=N)N)C(=O)N[C@@H](CCCNC(=N)N)C(=O)N[C@H](C(=O)N[C@H]1CNC[C@@H]1C(=O)N[C@@H](Cc1c[nH]c2ccccc12)C(=O)N[C@@H](CC(C)C)C(=O)N[C@@H](CCCNC(=N)N)C(=O)N[C@H]1CNC[C@@H]1C(=O)N[C@@H](CCCCN)C(=O)N[C@@H](CC(C)C)C(=O)N[C@@H](CCC(N)=O)C(=O)N[C@H]1CCC[C@@H]1C(=O)N[C@H](C(=O)N[C@@H](Cc1c[nH]cn1)C(=O)N[C@@H](CC(N)=O)C(=O)N[C@H]1CCC[C@@H]1C(N)=O)C(C)C)C(C)C [M-FcycD6_ACPC(1,7), XVUEIQXMHQ^hRAKXLNSXRRVZWLRZKLQXVHNX-NH2] ({ACPC(1S,2S)}-V[Aib]EIQ[X12]MHQ[hArg]AK[X12]LNS[X12]RRV[X13]WLR[X13]KLQ[X12]VHN-{NH(1S,2S-2-CONH2-cPent)}; N-terminus assumed)",
